Like-named read-outs stand apart in the source and are kept apart here.
Legend:
ShhN-EGFP = target: T1, ShhN-EGFP (Homo sapiens, UniProt Q15465); test: Microscale thermophoresis (MST) binding
T1 construct: PET-28(a)-human ShhN (Shh 24-197) plasmid; His (N); made in house; host or cells: Escherichia coli Rosetta (DE3)
Protocol: Chuanmao Zhang. EGFP gene was subcloned into pET-28(a)-human ShhN vector to build ShhN-EGFP plasmids. All mutations were introduced by PCR and confirmed by sequencing with GENEWIZ (China).
Measurements were performed using a Monolith NT. […] MST-optimized buffer (50 mM Tris·HCl, pH 7.4, 150 mM NaCl, 10 mM MgCl2, 0.1% Tween-20, 0.1% Pluronic-F127, 5% DMSO) was applied. Measurements were carried out using blue LED color with 20% LED power and 40% MST power. The concentration of ShhN-EGFP was adjusted according to the fluorescence. Mean values and standard deviations were calculated from experiments performed at least in triplicate. Nanotemper analysis software V1.5.41 was applied to analyze data.
We used microscale thermophoresis (MST) to quantitatively measure binding constants between the compounds and ShhN (Table S5 and Figure S1). A ShhN-EGFP fusion protein was constructed, expressed, and purified from bacterial cells. In MST binding assays, ShhN-EGFP was kept at a constant concentration according to the fluorescence signal. Different concentrations of the molecules were tested and dissociation constants (Kd) were derived.

[1] = tested on: Hh signaling pathway (8 × Gli-binding site luciferase reporter, Shh-LIGHT2 cells); test: Dual-luciferase reporter assay in Shh-LIGHT2 cells; assay type: cell-based; details: for IC50: Shh Light2, 36 h, ShhN-conditioned medium, 36 h, mean ± SD for three independent experiments; for inhibition at 5 µM: read-out: Inhibition rate for cell assay at 5 μM
Protocol: A dual-luciferase reporter assay was performed as previously described (Zhan et al., [2014]; Kong et al., [2015]). Shh-LIGHT2 cells, an Hh activity reporter cell line derived from NIH-3T3 cells by stably expressing 8 × Gli-binding site luciferase reporter (8 × GBS-luciferase) plasmid provided by Sasaki et al. ([1999]) and pRL-Renilla luciferase plasmid, were seeded into 96-well plates. After 24 h, ShhN-conditioned medium (ShhN CM) was added, and cells were exposed to molecules. The luciferase activities of cells were measured 36 h later with a Dual-Luciferase Reporter Assay System (E1960, Promega), according to the manufacturer's instructions, in a luminometer (Molecular Devices, Sunnyvale, CA). The firefly luciferase values were normalized to the Renilla luciferase activities, and IC50 values were fitted with the Hill equation with OriginPro 9.
We further tested the 45 Shh-binding compounds to assess their effects on the Hh signaling pathway. […] Compounds with similar framework were merged, resulting in seven hits.
All 22 derivatives of 7 were tested at 5 μM with the dual-luciferase reporter cell assay (Table S6).

[2] = tested on: Gli1 mRNA expression in Ptch+/−p53−/− medulloblastoma cells; test: Real-time PCR of Gli1 mRNA in Ptch+/-p53-/- medulloblastoma cells; assay type: cell-based, mice; details: RT-qPCR, 36 h exposure, normalized to GUSB
Protocol: Ptch^+/−p53^−/− medulloblastoma cells were cultivated from spontaneous medulloblastoma developed by ptch^+/−; p53^−/− mice. All procedures were preapproved by the Animal Care and Use Committee of Fudan University and performed according to institutional policies. Briefly, medulloblastoma tissues were mechanically minced and digested by collagenase. The cells were routinely cultured using Neurobasal A medium (Invitrogen) plus B-27 supplement (Invitrogen), EGF 20 ng/mL (Invitrogen), bFGF 20 ng/mL (Invitrogen), non-essential amino acids, N-acetylcysteine 60 μg/mL. GDC-0449 was purchased from Biovision (Milpitas, CA). […]
Total RNA was extracted from cells using an RNAiso Plus Kit (TaKaRa, Dalian, China) according to the manufacturer's instructions and processed directly to cDNA by reverse transcription with a SuperScript III Kit (TaKaRa, Dalian, China). Semi-quantitative PCR amplification was conducted using Stratagene mx3005p (Agilent). All quantitative PCR amplifications were performed in triplicate with a SYBR Green Kit (TaKaRa, Dalian, China) in an iCycleriQ system (Bio-Rad, Hercules, CA). […]
Levels of the Shh-induced transcription factor Gli1 are higher in Ptch^+/−p53^−/− medulloblastoma from mice than in control tissues as a result of increased Hh signaling activity (Wetmore et al., [2001]). […] We measured the expression of Gli1 mRNA using RT-qPCR (Figure 2). […]

ShhN = target: T2, ShhN (Homo sapiens, UniProt Q15465); test: NanoDSF thermal stability; assay type: binding; details: ShhN 0.2 mg/mL
T2 construct: PET-28(a)-human ShhN (Shh 24-197) plasmid; His (N); made in house; host or cells: Escherichia coli Rosetta (DE3)
T2 sequence (Q15465 24-197): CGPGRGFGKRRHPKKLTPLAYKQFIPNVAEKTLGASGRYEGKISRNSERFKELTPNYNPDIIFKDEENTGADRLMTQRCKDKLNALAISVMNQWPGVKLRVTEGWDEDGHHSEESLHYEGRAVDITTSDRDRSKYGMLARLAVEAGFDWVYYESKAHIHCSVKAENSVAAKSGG
Protocol: Measurements were performed using a Prometheus NT.48 instrument (NanoTemper Inc., Germany). ShhN was diluted to 0.2 mg/mL in buffer contained 10 mM HEPES, pH 7.4, 150 mM NaCl, and 5% DMSO. Measurements were carried out using 70% power with standard Prometheus NT.48 capillaries. The heating was 1.0°C/min from 20 to 95°C.
To gain further insight into the effects of inhibitors against ShhN, a NanoDSF experiment was conducted.

Shh = Shh inhibitory activity in cellular assays, ref Stanton et al., 2009 (Table 1 prints ref. 14), cited from earlier work
[3] = MST, ShhN-EGFP, mean±SD for three independent experiments, read-out: Kd

T1 sequence (Q15465 24-197): as above

Row | IC50 [1] [nM] | SMILES | inhibition at 5 µM [1] [%] | other results
1 | 2000 ± 300 | OCCCNCC(O)Cn1c2ccc(Br)cc2c2cc(Br)ccc21 (stereo not drawn) [Compound 5] |  | Kd (ShhN-EGFP): 4.5 ± 0.6 µM
2 | 2200 ± 300 | Nc1nc(NCCCN2CCOCC2)nc(NCc2ccco2)c1[N+](=O)[O-] [Compound 7] |  | Kd (ShhN-EGFP; [3]): 6.2 ± 0.6 µM
3 | 1200 ± 200 | N#Cc1c(N)nc(NCCCN2CCOCC2)nc1-c1ccc(Cl)cc1 [Compound 7_3d11] |  | 
4 |  | CS(=O)(=O)c1ccc(C(=O)Nc2ccc(Cl)c(-c3ccccn3)c2)c(Cl)c1 [GDC-0449] |  | Relative mRNA expression of Gli1 (effect in words) [2]: positive control for inhibition of the expression of Gli1 mRNA
5 | 2300 ± 200 | Cc1cc(C)c(CSC2=NCCN2)c(C)c1CSC1=NCCN1 [Compound 1] |  | Kd (ShhN-EGFP; [3]): 7 ± 0.8 µM
6 | ~400 | CCN(CC)CCNc1nc(Nc2cccc(Cl)c2)c2cnn(-c3ccccc3)c2n1 [Compound 7_3d3] | 107 ± 1 | Thermal stability of ShhN (in words) (ShhN): improved the thermal stability of ShhN better than 7
7 | 2000 ± 800 | CCOc1ccc(Nc2nc(N)c([N+](=O)[O-])c(NCc3ccco3)n2)cc1 [Compound 7_2d6] | 97 ± 7 | 
8 | 3200 ± 700 | Nc1nc(NCC2CCCO2)nc(NCc2ccco2)c1[N+](=O)[O-] (stereo not drawn) [Compound 7_2d2] | 94 ± 4 | 
9 | 2700 ± 200 | CCN(CC)S(=O)(=O)c1ccc(C(=O)Nc2sc3c(c2C(N)=O)CCN(C)C3)cc1 [Compound 4] |  | MST binding signal / dose-response (in words) (ShhN-EGFP; ShhN-EGFP): did not reach saturation
10 | 2600 ± 300 | Nc1nc(NCCN2CCOCC2)nc(NCc2ccco2)c1[N+](=O)[O-] [Compound 7_2d3] | 68 ± 12 | 
11 | 1400 ± 400 | CCOC(=O)c1c(C)n(-c2ccc(C)cc2)c2ccc(OCC(O)CNCCCO)cc12 (stereo not drawn) [Compound 6] |  | Kd (ShhN-EGFP; [3]): 5.8 ± 0.5 µM
12 | 5900 ± 1700 | Nc1nc(Nc2ccccc2F)nc(NCc2ccco2)c1[N+](=O)[O-] [Compound 7_2d9] | 94 ± 3 | 
13 | 4400 ± 900 | O=C(C[C@@H]1C/C=C/CCC(=O)O[C@H](c2ccccc2)CNC1=O)NCc1ccc(Cl)cc1 [Robotnikinin] |  | Relative mRNA expression of Gli1 (effect in words) [2]: did not inhibit Gli1 mRNA expression; IC50 (Shh): 15 µM; IC50 (Shh; listed as robotnikinin): ~15 µM
14 | 1700 ± 100 | OC(CNCc1ccc2c(c1)OCO2)COc1ccc(-c2csnn2)cc1 (stereo not drawn) [Compound 2] |  | Kd (ShhN-EGFP): 8.4 ± 0.9 µM
15 | 1600 ± 600 | c1ccc(Nc2nc(NC3CCCCCC3)nc3c2cnn3-c2ccccc2)cc1 [Compound 7_3d2] | 93 ± 1 | 
16 | 2100 ± 200 | Nc1nc(Nc2ccc(Cl)cc2)nc(NCc2ccco2)c1[N+](=O)[O-] [Compound 7_2d7] | 102 ± 3 | 
17 | 2200 ± 200 | c1ccc(COC(CNC2CCCCC2)CNC2CCCCC2)cc1 [Compound 3] |  | Kd (ShhN-EGFP; [3]): 3.1 ± 0.3 µM
18 | 600 ± 100 | CCN1CCN(c2nc(Nc3cccc(Cl)c3)c3cnn(-c4ccccc4)c3n2)CC1 [Compound 7_3d4] | 105 ± 5 | 
19 | 2400 ± 400 | Nc1nc(Nc2cccc(F)c2)nc(NCc2ccco2)c1[N+](=O)[O-] [Compound 7_2d8] | 101 ± 8 | 

Reference: publication PMC7309560, “Discovery of Small Molecule Inhibitors Targeting the Sonic Hedgehog” (Frontiers in Chemistry, 2020)
